The term IC50 denotes the midpoint of a concentration-inhibition curve.

Our source for the IC50 values is patent US9102637B2, “Bicyclic thiazole compounds” (CARNA BIOSCIENCES INC., priority 2013, dated 2015).

This assay deals with human TNIK (N-terminal segment, TNIK_N, residues 1-314) (Homo sapiens (Human), UniProt Q9UKE5). The assay is described as follows: TNIK kinase assay (mobility shift). The class given is biochemical. To be noted: TNIK_N kinase activity, 25 μM ATP, 1 h at room temperature. An excerpt:
Preparation of Recombinant Human TNIK (N-Terminal Segment):
A cDNA encoding the N-terminal segment (TNIK_N, residues 1-314) containing the kinase domain of human TNIK (NM_015028.1) was amplified from cDNA mixture synthesized from human tissue (Biochain) by PCR using the following primers.
The cDNA was subcloned into baculovirus transfer vector pFastBac_GSTb that includes protease cleavage site and glutathione S-transferase purification tag (GST-tag). The plasmid was purified and the insertion of the pFastBac_GSTb-TNIK_N was confirmed by DNA sequencing. Then E. coli DH10Bac competent cells were transformed with the plasmid to prepare the recombinant bacmid according to the instructions for the Bac-to-Bac™ baculovirus expression systems (Invitrogen). The Sf9 cells were transfected with the recombinant bacmid containing pFastBac_GSTb-TNIK_N using Cellfectin Reagent (Invitrogen) in SF-9001I serum free media (Invitrogen). The viral supernatant was collected from the medium 72 h after transfection. The virus was amplified three times by infecting actively growing Sf9 or Sf21 cells in Grace's insect media (Invitrogen) supplemented with 10% FCS and an antibiotic-antimycotic reagent (Invitrogen) for 72 h at 27° C. in T-flask or roller bottles. The titer of amplified TNIK_N virus was estimated at 2.36×10^8 pfu/ml by using BacPAK™ Baculovirus Rapid Titer kit (Clontech).
Log-phase Sf21 cells (2×10^6 cells/ml) in the Grace's insect media were infected with the recombinant baculovirus at MOI of 3.0 and incubated in roller bottles (250 ml media per bottle) for 72 h at 27° C., after which, the cells were collected by centrifugation, and the cell pellet washed with cold PBS and kept at −80° C. until purification. The following purification procedures were carried out at 4° C. The frozen cells were thawed on ice and lysed in lysis buffer (50 mM Tris-HCl, pH 7.5, 150 mM NaCl, 1% Nonidet P-40, 5 mM DTT, 0.5 mM EDTA, 0.5 mM EGTA) supplemented with 1 mM phenylmethansulfonylfluoride, 2 μg/ml leupeptin, 2 μg/ml aprotinin, 1 mM NaF, 100 μM sodium orthovanadate, and 1 μM cantharidin by sonication. The suspended lysate was cleared by centrifugation at 9000g for 20 min and the supernatant was incubated for 1 h with glutathione Sepharose beads (GE Healthcare). The beads were suspended in buffer-H (50 mM Tris-HCl, pH 7.5, 1 M NaCl, 1 mM DTT, 0.5 mM EDTA, 0.5 mM EGTA and 0.05% Brij35) and washed with buffer-H followed by buffer-L (50 mM Tris-HCl, pH 7.5, 150 mM NaCl, 1 mM DTT, 0.5 mM EDTA, 0.5 mM EGTA, 0.05% Brij35) in an Econo-pack column (BIO-RAD). The bound TNIK_N was eluted with elution buffer (50 mM Tris-HCl, pH 8.0, 150 mM NaCl, 1 mM DTT, 10% glycerol, 0.5 mM EDTA, 0.5 mM EGTA and 5 mM reduced glutathione). The eluted fractions were collected and determined the protein concentration by Bradford reagent (BIO-RAD). The TNIKN fractions were pooled and desalted using 10DG column (BIORAD) equilibrated with the storage buffer (50 mM Tris-HCl, pH 7.5, 150 mM NaCl, 1 mM DTT, 10% glycerol, 0.05% Brij35). The purified TNIKN was characterized by electrophoresis using 4-20% polyacrylamide gels and matrix-assisted laser desorption/ionization reflection time-of-flight (MALDI-TOF) mass spectrometry on a Voyager-DE RP MALDI/TOF (Applied Biosystems). TNIK_N was confirmed by the molecular weight and. MASCOT Peptide Mass Fingerprint.
The kinase assays were conducted in a 20 μl volume using 384-well plates (Greiner). The reaction mixture consists of compound or vehicle (1% DMSO), 0.08 ng/μl TNIK_N, 1 μM FITC-labeled substrate peptides, including E-aminocaproic acid and 7 amino acids (described as SEQ ID NO.3 in “Kinase assay of TEST EXAMPLE 1” of WO 2010/064111(P.31)), 20 mM Hepes, pH 7.5, 0.01% Triton X-100, 5 mM MgCl2, 25 μM ATP and 2 mM DTT. As blank, TNIK N was excluded from the reaction mixture of vehicle (1% DMSO). […]

Sequence of human TNIK (N-terminal segment, TNIK_N, residues 1-314) (Q9UKE5 1-314): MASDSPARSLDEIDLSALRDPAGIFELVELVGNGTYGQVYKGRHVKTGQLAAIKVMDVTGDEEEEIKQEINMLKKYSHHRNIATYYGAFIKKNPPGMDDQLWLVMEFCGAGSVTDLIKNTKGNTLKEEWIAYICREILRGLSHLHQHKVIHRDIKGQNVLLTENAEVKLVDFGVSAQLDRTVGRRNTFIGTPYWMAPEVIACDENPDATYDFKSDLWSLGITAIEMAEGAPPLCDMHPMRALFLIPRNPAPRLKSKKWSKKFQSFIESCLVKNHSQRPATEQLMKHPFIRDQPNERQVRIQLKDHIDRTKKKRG

As to `NC(=O)c1nc(Nc2ccc3ccccc3c2)sc1NC(=O)c1ccc(N2CCN(CCO)CC2)cc1` [Example 187, 5-{4-[4-(2-hydroxyethyl)piperazin-1-yl]benzamido}-2-(naphthalen-2-ylamino)thiazole-4-carbox-amide], the IC50 was 7.2 nM.
Consider `NC(=O)c1nc(Nc2ccc3ccccc3c2)sc1NC(=O)c1ccc(CN2CCNC(=O)C2)cc1` [Example 180, 2-(naphthalen-2-ylamino)-5-{4-[(3-oxopiperazin-1-yl)methyl]benzamido}thiazole-4-carboxamide], for which the IC50 was 4.2 nM.
Consider `NC(=O)c1nc(Nc2ccc3ccccc3c2)sc1NC(=O)c1ccc(CN2CCC(O)CC2)cc1` [Example 173, 5-{4-[(4-hydroxypiperidin-1-yl)methyl]benzamido}-2-(naphthalen-2-ylamino)thiazole-4-carbox-amide], for which the IC50 stood at 3.4 nM.
With `NC(=O)c1nc(Nc2ccc3ccc(F)cc3c2)sc1NC(=O)c1ccsc1` [Example 80, 2-[(7-fluoronaphthalen-2-yl)amino]-5-(thiophene-3-carboxamido)thiazole-4-carboxamide], the IC50 was found to be 16.9 nM.
For `NC(=O)c1nc(Nc2ccc3ccccc3c2)sc1NC(=O)CCCCCN1CCOCC1` [Example 92, 5-(6-morpholinohexanamido)-2-(naphthalen-2-ylamino)thiazole-4-carboxamide], the IC50 was 20.2 nM.
As to `NC(=O)c1nc(Nc2ccc3ccccc3c2)sc1NC(=O)c1ccc(Cn2cnc([N+](=O)[O-])n2)cc1` [Example 243, 2-(naphthalen-2-ylamino)-5-{4-[(3-nitro-1H-1,2,4-triazol-1-yl)methyl]benzamido}thiazole-4-carbox-amide], the IC50 worked out at 14.8 nM.
On to `COc1cc(Nc2nc(C(N)=O)c(NC(=O)c3ccsc3)s2)cc2ccccc12` [Example 74, 2-[(4-methoxynaphthalen-2-yl)amino]-5-(thio-phene-3-carboxamido)thiazole-4-carboxamide], for which the IC50 was 51.3 nM.
In the case of `NC(=O)c1nc(Nc2ccc3ccccc3c2)sc1NC(=O)c1ccc(Cn2cc(CO)nn2)cc1` [Example 260, 5-{4-[(4-(hydroxymethyl)-1H-1,2,3-triazol-1-yl)methyl]benzamido}-2-(naphthalen-2-ylamino) thiazole-4-carboxamide], the IC50 stood at 5.3 nM.
Then `C#CC(=O)Nc1sc(Nc2ccc3ccccc3c2)nc1C(N)=O` [Example 204, 2-(naphthalen-2-ylamino)-5-propiolamidothiazole-4-carboxamide], with 6 nM.
As for `NC(=O)c1nc(Nc2ccc3ccccc3c2)sc1NC(=O)C#CCCCn1ccnc1` [Example 234, 5-[6-(1H-imidazol-1-yl)hex-2-ynamido]-2-(naph-thalen-2-ylamino)thiazole-4-carboxamide], the IC50 was 9.7 nM.
For the molecule `CC(=O)Nc1ccc(C(=O)Nc2sc(Nc3cccc4ccccc34)nc2C(N)=O)cc1` [Example 1, 5-(4-acetamidobenzamido)-2-(naphthalen-1-ylamino)thiazole-4-carboxamide], the half-maximal inhibitory concentration (IC50) was determined as 24.7 nM.
Consider `NC(=O)c1nc(Nc2ccc3ccccc3c2)sc1NC(=O)c1ccc(CN2CCN(CCO)CC2)cc1` [Example 185, 5-(4-{[4-(2-hydroxyethyl)piperazin-1-yl]methyl}benzamido)-2-(naphthalen-2-ylamino)thiazole-4-carboxamide], for which the IC50 was 2.7 nM.
As for `NC(=O)c1nc(Nc2ccc3ccccc3c2)sc1NC(=O)c1ccc(CN2CC[C@H](O)C2)cc1` [Example 203, (S)-5-{4-[(3-hydroxypyrrolidin-1-yl)methyl]benzamido}-2-(naphthalen-2-ylamino)thiazole-4-carboxamide], the IC50 is 5 nM.
As for `NC(=O)c1nc(Nc2ccc3ccccc3c2)sc1NC(=O)c1ccc(CN2C(=O)CSC2=O)cc1` [Example 252, 5-{4-[(2,4-dioxothiazolidin-3-yl)methyl]benzamido}-2-(naphthalen-2-ylamino)thiazole-4-carbox-amide], the IC50 amounted to 15.9 nM.
As for `Cc1nnnn1Cc1ccc(C(=O)Nc2sc(Nc3ccc4ccccc4c3)nc2C(N)=O)cc1` [Example 244, 5-{4-[(5-methyl-1H-tetrazol-1-yl)methyl]benz-amido}-2-(naphthalen-2-ylamino)thiazole-4-carbox-amide], the IC50 was found to be 7.1 nM.
`COc1ccc(C(=O)Nc2sc(Nc3ccc4ncccc4c3)nc2C(N)=O)cc1` [Example 4, 5-(4-methoxybenzamido)-2-(quinolin-6-ylamino) thiazole-4-carboxamide]: the IC50 came out at 21.5 nM.
Then `NC(=O)c1nc(Nc2ccc3ccccc3c2)sc1NC(=O)c1csc(Cn2ccnc2)c1` [Example 258, 5-{5-[(1H-imidazol-1-yl)methyl]thiophene-3-carboxamido}-2-(naphthalen-2-ylamino)thiazole-4-carboxamide], with 8.7 nM; and `NC(=O)c1nc(Nc2ccc3ccc(F)cc3c2)sc1NC(=O)c1ccc(Cn2ccnc2)cc1` [Example 262, 5-{4-[(1H-imidazol-1-yl)methyl]benzamido}-2-[(7-fluoronaphthalen-2-yl)amino]thiazole-4-carbox-amide], with 8.4 nM.
As for `NC(=O)c1nc(Nc2ccc3ccccc3c2)sc1NC(=O)c1ccc(Cn2cnc(CO)c2)cc1` [Example 246, 5-{4-[(4-(hydroxymethyl)-1H-imidazol-1-yl)methyl]benzamido}-2-(naphthalen-2-ylamino)thiazole-4-carboxamide], the IC50 worked out at 3.5 nM.
`COc1ccc2cc(Nc3nc(C(N)=O)c(NC(=O)c4ccc(NCCO)cc4)s3)ccc2c1` [Example 113, 5-{4-[(2-hydroxyethyl)amino]benzamido}-2-[(6-methoxynaphthalen-2-yl)amino]thiazole-4-carbox-amide]: the IC50 came out at 14.8 nM.
For the molecule `NC(=O)c1nc(Nc2ccc3ccccc3c2)sc1NC(=O)C#CCCCn1cncn1` [Example 233, 5-[6-(1H-1,2,4-triazol-1-yl)hex-2-ynamido]-2-(naphthalen-2-ylamino)thiazole-4-carboxamide], the IC50 stood at 10.7 nM.
With `CN1CCN(Cc2cc(C(=O)Nc3sc(Nc4cccc5ncccc45)nc3C(N)=O)cs2)CC1` [Example 56, 5-{5-[(4-methylpiperazin-1-yl)methyl]thiophene-3-carboxamido}-2-(quinolin-5-ylamino)thiazole-4-carboxamide], the IC50 worked out at 8.2 nM.
Turning to `CN1CCCN(Cc2ccc(C(=O)Nc3sc(Nc4ccc5ccccc5c4)nc3C(N)=O)cc2)CC1` [Example 190, 5-{4-[(4-methyl-1,4-diazepan-1-yl)methyl]benz-amido}-2-(naphthalen-2-ylamino)thiazole-4-carbox-amide], the IC50 was 3.2 nM.
Take `NC(=O)c1nc(Nc2ccc3ccc(F)cc3c2)sc1NC(=O)CCCCCN1CCOCC1` [Example 130, 2-[(7-fluoronaphthalen-2-yl)amino]-5-(6-morpho-linohexanamido)thiazole-4-carboxamide]: the IC50 is 19.5 nM.
For the molecule `Cc1nccn1Cc1ccc(C(=O)Nc2sc(Nc3ccc4ccccc4c3)nc2C(N)=O)cc1` [Example 237, 5-{4-[(2-methyl-1H-imidazol-1-yl)methyl]benz-amido}-2-(naphthalen-2-ylamino)thiazole-4-carbox-amide], the IC50 amounted to 2.3 nM.
